Laboratory results from US20080280941A1, “8-Phenoxy-Gamma Carboline Derivatives” (priority 2004, published 2008).

Tests used:
[1] = system: inflammation induced by the stimulation of the saphenous nerve; experiment: Inhibition of neurogenic inflammation (plasmatic extravasation) induced by electrical stimulation of the saphenous nerve; format: in vivo, male Wistar rats; settings: rat, 15 minutes before electrical stimulation of the saphenous nerve, Evans Blue extravasation
Procedure: The results of the pharmacological studies are given below. • 1. The inhibitory power of the molecules on inflammation induced by the stimulation of the saphenous nerve has been measured at follows 24 hours after a treatment with guanethidine (20 mg/kg, sc), the male Wistar rats (220-250 g) are anaesthetized with sodic pentobarbital (60 mg/kg, ip). The two back legs are shaved. After a cut in the upper part of the thigh, the saphenous nerve is cleared, cut, placed on a platinum electrode and immersed in a drop of paraffin oil. Only the electrode placed on the right leg is connected to a stimulator. This latter represents the “stimulated” leg by contrast to the “sham” left leg. The product (at a dosage of 5 μg/kg) or the corresponding solvent (NaCl 9 ‰-DMSO) are administrated via the jugular vein, 15 minutes before the electrical stimulation (ES). A plasmatic marker, Evans Blue (20 mg/kg iv) is administered through the penis vein 5 minutes before the ES. The saphenous nerve is stimulated according to the following conditions: 3V; 5 Hz; 1 ms; 5 minutes (Harvard stimulator). At the end of the ES, a blood sample is realized by cardiac puncture and the skin of the edema of each leg (visualized by the extravasation of the Evans Blue) is sampled and weighted later. The animals are killed by anaesthetical overdose. The blood samples are centrifuged (3,000 rotations/minute, during 15 minutes). […] The Evans Blue is measured in the plasma and after extraction of the skin biopsies by a spectrophotometrical method, at 620 nm. […] The vascular contractile response has been measured with saphenous vein rings of rabbits (new Zealand, 2.5 to 3 kg) bound to a sensor, installed in organs baths (EMKA Technologies), containing a physiological Krebs-[…] solution. […] The vasoconstrictive effect of the molecules with increasing concentrations is evaluated with saphenous vein rings contracted in an intermediate manner with 40 mmol/l KCl and treated with 0.5 μmol/l pargyline, an inhibitor of monoamine oxydase. The results are expressed as percent of the maximum effect induced by serotonine at 1 μmol/l. […]

[2] = molecular target: 5HT1B/5HT1D receptors of isolated membranes of bovine nuclear caudal; experiment: Binding on 5HT1B/5HT1D receptors, shifting of [3H]5-carboxamidotryptamine; settings: 100 nmol/l 8-OH-DPAT and 100 nM mesulergine
Procedure: (§1) 24 hours after a treatment with guanethidine (20 mg/kg, sc), the male Wistar rats (220-250 g) are anaesthetized with sodic pentobarbital (60 mg/kg, ip). The two back legs are shaved. After a cut in the upper part of the thigh, the saphenous nerve is cleared, cut, placed on a platinum electrode and immersed in a drop of paraffin oil. Only the electrode placed on the right leg is connected to a stimulator. This latter represents the “stimulated” leg by contrast to the “sham” left leg. The product (at a dosage of 5 μg/kg) or the corresponding solvent (NaCl 9 ‰-DMSO) are administrated via the jugular vein, 15 minutes before the electrical stimulation (ES). A plasmatic marker, Evans Blue (20 mg/kg iv) is administered through the penis vein 5 minutes before the ES. The saphenous nerve is stimulated according to the following conditions: 3V; 5 Hz; 1 ms; 5 minutes (Harvard stimulator). […] The Evans Blue is measured in the plasma and after extraction of the skin biopsies by a spectrophotometrical method, at 620 nm. […] The vascular contractile response has been measured with saphenous vein rings of rabbits (new Zealand, 2.5 to 3 kg) bound to a sensor, installed in organs baths (EMKA Technologies), containing a physiological Krebs-Henseileit solution. […] The vasoconstrictive effect of the molecules with increasing concentrations is evaluated with saphenous vein rings contracted in an intermediate manner with 40 mmol/l KCl and treated with 0.5 μmol/l pargyline, an inhibitor of monoamine oxydase. The results are expressed as percent of the maximum effect induced by serotonine at 1 μmol/l. […] The binding on the 5HT1B/5HT1D receptors of isolated membranes of bovine nuclear caudal has been measured by measuring the shifting of 5 nmoml/l of [^3H]5-carboxamidotryptamine by increasing concentrations of the molecule in the presence of 100 nmol/l of 8-OH-dipropylaminotetralin (8-OH-DPAT) in order to mask the 5HT1A receptors and in the presence of 100 nM of mesulergine in order to mask the 5HT2 receptors.

[3] = system: saphenous vein rings of rabbits; experiment: Vascular contractile response of isolated saphenous vein rings; set-up: species or system rabbits (new Zealand); settings: rabbit saphenous vein rings, percent of the maximum effect induced by serotonine at 1 μmol/l
Procedure: as §1

[4] = molecular target: T1, 5HT1A receptors of isolated membranes of rat brain (Rattus norvegicus, UniProt P19327); experiment: Binding to 5HT1A receptors, shifting of [3H]8-OH-DPAT; settings: 100 nmol/l mesulergine
T1 construct: isolated membranes of rat brain; from tissue; host or cells: rat brain membranes
T1 sequence (P19327 1-422): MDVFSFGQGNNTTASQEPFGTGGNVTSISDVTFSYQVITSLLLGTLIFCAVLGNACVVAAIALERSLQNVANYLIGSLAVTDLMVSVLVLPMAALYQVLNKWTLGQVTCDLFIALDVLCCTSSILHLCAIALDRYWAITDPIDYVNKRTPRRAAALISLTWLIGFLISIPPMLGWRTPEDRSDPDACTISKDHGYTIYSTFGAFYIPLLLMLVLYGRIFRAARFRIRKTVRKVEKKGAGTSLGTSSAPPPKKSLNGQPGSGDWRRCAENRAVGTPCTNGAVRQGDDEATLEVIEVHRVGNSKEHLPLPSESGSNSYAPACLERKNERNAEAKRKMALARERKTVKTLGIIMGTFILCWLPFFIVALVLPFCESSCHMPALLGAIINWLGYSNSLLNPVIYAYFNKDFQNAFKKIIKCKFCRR

| Compound | Neuro. Inf. Inhib. (%) 5 μg/kg iv [1] [%] | IC50 [2] [µM] | Contraction. Saph. Vein 10^−6 mol/l (%) [3] [%] | IC50 [4] [µM] | melting point [°C] |
| --- | --- | --- | --- | --- | --- |
| Cl.c1ccc(CN2CCc3[nH]c4ccc(Oc5ccccc5)cc4c3C2)cc1 [Example 3, 8-Phenoxy-N-benzyl-2,3,4,5-tetrahydro-5H-pyridinium[4,3-b]indole-hydrochloride] | 80 | > 5 | 0 | > 5 |  |
| c1ccc(Oc2ccc3[nH]c4c(c3c2)CNCC4)cc1 [Example 1, 8-Phenoxy-2,3,4,5-tetrahydro-1H-pyrido[4,3-b]indole] | 65 | 10 | 0 | 30 |  |
| c1ccc(CN2CCc3[nH]c4ccc(Oc5ccccc5)cc4c3C2)cc1 [Example 2, 8-Phenoxy-N-benzyl-2,3,4,5-tetrahydro-1H-pyrido[4,3-b]indole] | 60 | > 10 | 0 | > 10 | 102.3 |
